Assay results: PubChem BioAssay (NCI)
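Assay format: 96-well plates, 48-hour exposure. GI50 = concentration required for 50% inhibition of growth. The concentration for full growth arrest is given as TGI.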

What was measured:
Assay in all cases: NCI anticancer screen, dose series, 48 h
IGROV1 ovarian = test system: IGROV1 ovarian
K-562 leukemia = test system: K-562 leukemia
NCI-H226 lung = test system: NCI-H226 lung
SF-268 CNS = test system: SF-268 CNS
SF-539 CNS = test system: SF-539 CNS
SK-OV-3 ovarian = test system: SK-OV-3 ovarian
SW-620 colon = test system: SW-620 colon
UO-31 renal = test system: UO-31 renal
PC-3 prostate = test system: PC-3 prostate
NCI/ADR-RES ovarian = test system: NCI/ADR-RES ovarian

| SMILES | TGI (IGROV1 ovarian) | TGI (K-562 leukemia) | TGI (NCI-H226 lung) | TGI (SF-268 CNS) | TGI (SF-539 CNS) | TGI (SK-OV-3 ovarian) | TGI (SW-620 colon) | TGI (UO-31 renal) | GI50 (NCI-H226 lung) | GI50 (SF-268 CNS) | GI50 (SF-539 CNS) | GI50 (SK-OV-3 ovarian) | GI50 (SW-620 colon) | GI50 (UO-31 renal) | GI50 (IGROV1 ovarian) | GI50 (PC-3 prostate) | TGI (PC-3 prostate) | GI50 (NCI/ADR-RES ovarian) | TGI (NCI/ADR-RES ovarian) |
| --- | --- | --- | --- | --- | --- | --- | --- | --- | --- | --- | --- | --- | --- | --- | --- | --- | --- | --- | --- |
| CNC(=O)OCc1c2ccncc2c(C)c2c1[nH]c1ccc(OC)cc12 | 4.56 µM | 2.48 µM | 0.784 µM | 0.79 µM | 0.719 µM | 0.866 µM | > 100 µM | 0.395 µM | – | – | – | – | – | – | – | – | – | – | – |
| COc1cnc2c(c1)C(=O)c1c-2n(CCCNC2=NCCS2)c(=O)c2cc(Cl)ccc12 | – | – | 2.29 µM | 2.06 µM | 1.8 µM | 1.64 µM | 2.08 µM | 1.74 µM | 0.687 µM | 0.088 µM | 0.475 µM | 0.316 µM | 0.146 µM | 0.163 µM | – | – | – | – | – |
| O=C(O)c1nc(-c2ccc(Cl)c(Cl)c2)nc2ccc(Cl)cc12 | > 100 µM | > 10 µM | – | > 100 µM | > 100 µM | 43.3 µM | > 100 µM | > 100 µM | – | – | – | – | – | – | – | – | – | – | – |
| Cn1cc(-c2csc(-c3cn(CCCN4CCCCC4)c4ccccc34)n2)c2cccnc21 | 3.35 µM | – | 7.62 µM | 3.41 µM | 3.08 µM | 42.7 µM | 3.74 µM | 2.93 µM | 2.55 µM | 1.72 µM | 1.62 µM | 19.3 µM | 1.95 µM | 1.51 µM | 1.61 µM | 1.74 µM | 3.3 µM | – | – |
| C=C1c2ccoc2C[C@H]2[C@H]1CC[C@@]1(O)[C@@](C)(C(=O)OC)CCC[C@]21C | 38.4 µM | – | 56.2 µM | 73.5 µM | > 100 µM | > 100 µM | 85.5 µM | > 100 µM | 18.1 µM | 22.7 µM | 69.3 µM | > 100 µM | 29.8 µM | 33.9 µM | 11.2 µM | 27.6 µM | > 100 µM | 42.5 µM | > 100 µM |
| CCc1cccc(C)c1NC(=O)C1=C(C)NC(C)=C(C(=O)Nc2c(C)cccc2CC)C1c1ccc2c(c1)OCO2 | 78.6 µM | 92.3 µM | 49.5 µM | 59.5 µM | 38.6 µM | 92.5 µM | 55.9 µM | 28.7 µM | – | – | – | – | – | – | – | – | – | – | – |
| COC1=C(C)C(=O)c2c(cc3c(c2O)C(C)(CCC=C(C)C)C(C)O3)C1=O (stereo not given) | > 100 µM | > 100 µM | 37.5 µM | > 100 µM | > 100 µM | > 100 µM | > 100 µM | > 100 µM | – | – | – | – | – | – | – | – | – | – | – |
| CN(C)C(=O)c1ccc([N+](=O)[O-])cc1 | > 100 µM | > 100 µM | > 100 µM | > 100 µM | > 100 µM | > 100 µM | > 100 µM | > 100 µM | – | – | – | – | – | – | – | – | – | – | – |
| NCCN.O=C([O-])CN1CCOCC1.[OH-].[Pt+4] | > 100 µM | – | > 100 µM | > 100 µM | > 100 µM | > 100 µM | > 100 µM | > 100 µM | > 100 µM | > 100 µM | > 100 µM | > 100 µM | > 100 µM | > 100 µM | > 100 µM | > 100 µM | > 100 µM | > 100 µM | > 100 µM |
| CCOC(=O)/C(O)=C(/C(=O)OC)c1ccc(Cl)cc1 | > 100 µM | > 100 µM | – | > 100 µM | > 100 µM | > 100 µM | > 100 µM | > 100 µM | – | – | – | – | – | – | – | – | – | – | – |
